Measured values reported in patent US11957728B2, “Compositions for targeting receptor for advanced glycation end-products (RAGE) in a chronic inflammatory condition” (Sami-Sabinsa Group Limited, priority 2020, dated 2024).
Values belong to the molecule of their own block, whether it stands above or below them.

What was measured:
[1] = test system: IL-6; assay: IL-6 expression in pancreas of HFFD diabetic rats (qRT-PCR); type: in vivo, Wistar Rats; settings: Diabetic 1.60 ± 0.09
Description: (§1) Wistar Rats (150 g) were given High fat and fructose diet (HFFD) to induced type 2 diabetes (T2D). HFFD induces the development of diabetes associated with long term metabolic disorders including Fasting hyperglycemia, pre- and post-prandial hyperinsulinemia, Insulin resistance, Glucose intolerance and Dyslipidemia. Animals in HFFD show complications associated with T2D such as hepatic steatosis complicated by fibrosis, inflammation, hyperleptinemia and endothelial dysfunction. Rats were co administered with AC3 (100 mg/kg), BAP (200 μg/kg) BAP+AC3 (200 μg+100 mg/kg) BAP+AC3 (50 μg+100 mg/kg) and Metformin as positive control at 100 mg/kg along with HFFD for 90 days (Table 4). The organs were collected at the end of the experiment to evaluate the effect of the supplements on RAGE expression, oxidative stress and inflammation. […] from pancreas sample using the trizol method. […] First-strand cDNA was prepared from RNA samples using oligo dT primers and Superscript III reverse transcriptase (cDNA synthesis kit, Invitrogen™) Quantitative real-time PCR (qRT-PCR) was performed with SYBR Green I fluorescent dye using Light cycler 96 according to the manufacturer's instructions (Light Cycler® FastStart DNA Master SYBR Green I, Roche). […] The gene expression of the target gene in each test sample was determined by relative quantification using the comparative Ct (ΔΔCt) method.

[2] = test system: inflammatory marker (TNF-α, IL6, IL-1β); assay: Inflammatory cytokine expression in pancreas of HFFD diabetic rats, overall statements; type: in vivo, Wistar Rats; settings: BAP 200 ug/kg; AC3 100 mg/kg; combinations; p<0.05
Description: as §1

[3] = test system: reactive oxygen species (ROS); assay: Oxidative stress in tissue homogenates (DCFDA fluorescence) of HFFD diabetic rats; type: in vivo, Wistar Rats; settings: for Relative Fluorescence Intensity, Average: Normal 6.5, Diabetic 23.8
Description: Wistar Rats (150 g) were given High fat and fructose diet (HFFD) to induced type 2 diabetes (T2D). HFFD induces the development of diabetes associated with long term metabolic disorders including Fasting hyperglycemia, pre- and post-prandial hyperinsulinemia, Insulin resistance, Glucose intolerance and Dyslipidemia. Animals in HFFD show complications associated with T2D such as hepatic steatosis complicated by fibrosis, inflammation, hyperleptinemia and endothelial dysfunction.
Rats were co administered with AC3 (100 mg/kg), BAP (200 μg/kg) BAP+AC3 (200 μg+100 mg/kg) BAP+AC3 (50 μg+100 mg/kg) and Metformin as positive control at 100 mg/kg along with HFFD for 90 days (Table 4). The organs were collected at the end of the experiment to evaluate the effect of the supplements on RAGE expression, oxidative stress and inflammation.
The level of oxidative stress in tissue was estimated by using 20,70-dichlorofluorescin diacetate (DCFDA), a fluorogenic dye that measures hydroxyl, peroxyl, and other reactive oxygen species (ROS) activity. Briefly, an aliquot of the tissue homogenates (10 μL) were mixed with 150 μL ethanol solution of DCFDA to the final concentration of 10 mM. After incubation for 30 min at room temperature in dark, the fluorescence was measured with the excitation and emission wavelengths of 488 and 520 nm. Higher the fluorescence, higher is the oxidative stress. oxidative stress is decreased in the subject, and brought about by curcuminoids. BAP, or their combination.

[4] = test system: IL-1β; assay: IL-1β expression in pancreas of HFFD diabetic rats (qRT-PCR); type: in vivo, Wistar Rats; settings: Diabetic 1.66 ± 0.04
Description: as §1

[5] = test system: RAGE; assay: RAGE expression in pancreas of HFFD-induced diabetic rats (qRT-PCR); type: in vivo, Wistar Rats
Description: as §1

[6] = test system: formation of AGE (bovine serum albumin + D-Ribose); assay: In vitro anti-glycation assay (BSA + D-Ribose, fluorescence Ex/Em 390/460 nm, 24 h); type: biochemical
Description: Glycation is the non-enzymatic glycosylation reaction involving amino groups of proteins, lipids, or nucleic acids with sugar aldehyde or keto groups resulting in the formation of advanced glycosylation end-products (AGE) (Yamagishi et al. Pathologic role of dietary advanced glycation end products in cardiometabolic disorders, and therapeutic intervention, Nutrition, 32(2), 157-65 (2016)). The reactive carbonyls of sugars combine with amino groups of a protein, lipid or nucleic acid generating Schiff bases, which rearrange to Amadori products. In a series of slow reactions, the Amadori reactions, Schiff base and Maillard reactions, ultimately form AGE. Although glycation is slow in vivo, the glycation products have long-lasting effects. The effect of test substances on preventing the formation of AGE was evaluated in vitro
Anti-glycation activity was evaluated as described earlier (Sero et al. Tuning a 96-Well Microtiter Plate Fluorescence-Based Assay to Identify AGE Inhibitors in Crude Plant Extracts) Briefly, 10 μl of various sample concentrations were added to 40 μl of 25 mg/ml bovine serum albumin and 50 μl of 150 mg/ml D-Ribose in a 96 well black microplate. D-Ribose with buffer served as control. The plate containing the mixture was incubated for 24 h at 37° C. The advanced glycation product was detected by measuring the fluorescence intensity at Ex/Em of 390/460 nm by using BMG FLUOstar Optima Microplate reader.

[7] = test system: TNF-α; assay: TNF-α expression in pancreas of HFFD diabetic rats (qRT-PCR); type: in vivo, Wistar Rats; settings: Diabetic 1.73 ± 0.34
Description: as §1

[8] = molecular target: DPP4 (Dipeptidyl-peptidase 4) (Homo sapiens, UniProt P27487); assay: Inhibition of DPP4 enzyme; type: biochemical; set-up: Anti-DPP4 activity: unit of the concentration uncertain
[9] = test system: glycation; assay: Anti-glycation activity of curcuminoids at 24 and 72 hrs (320/405); type: biochemical

Chain of DPP4 (Dipeptidyl-peptidase 4) (P27487 whole entry, species assumed): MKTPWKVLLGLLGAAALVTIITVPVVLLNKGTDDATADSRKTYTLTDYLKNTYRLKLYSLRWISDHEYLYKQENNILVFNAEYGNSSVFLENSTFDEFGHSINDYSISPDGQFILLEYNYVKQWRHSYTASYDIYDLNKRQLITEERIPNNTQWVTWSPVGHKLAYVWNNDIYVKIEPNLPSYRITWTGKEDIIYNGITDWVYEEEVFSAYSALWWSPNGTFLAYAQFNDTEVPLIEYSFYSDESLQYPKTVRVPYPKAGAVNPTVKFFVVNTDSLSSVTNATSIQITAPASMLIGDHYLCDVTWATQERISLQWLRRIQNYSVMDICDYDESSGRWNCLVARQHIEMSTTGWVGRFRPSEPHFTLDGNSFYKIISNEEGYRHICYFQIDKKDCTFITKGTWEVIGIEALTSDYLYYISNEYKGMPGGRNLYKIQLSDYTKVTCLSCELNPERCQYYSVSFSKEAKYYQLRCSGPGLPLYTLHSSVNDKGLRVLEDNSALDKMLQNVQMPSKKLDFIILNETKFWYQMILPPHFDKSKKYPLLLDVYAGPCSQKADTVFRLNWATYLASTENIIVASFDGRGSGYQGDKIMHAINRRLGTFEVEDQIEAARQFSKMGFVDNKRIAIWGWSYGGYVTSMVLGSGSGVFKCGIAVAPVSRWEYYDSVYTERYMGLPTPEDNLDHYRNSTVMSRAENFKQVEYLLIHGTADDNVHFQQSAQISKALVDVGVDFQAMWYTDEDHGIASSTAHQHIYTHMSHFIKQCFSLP

Structure (SMILES): CCCCCCCCCCCCCCCC(=O)O[C@H]1CC[C@]2(C)[C@H]3CC=C4[C@@H]5CC(C)(C)CC[C@]5(C)CC[C@@]4(C)[C@]3(C)CC[C@H]2C1(C)C [BAP, β-amyrin palmitate]
- Expression level of IL-6 (Normal = 1) ([1]; BAP 200 μg/kg): 2.09 ± 0.08
- Reduction of inflammatory cytokine expression in pancreas (in words) [2]: not effective
- Relative Fluorescence Intensity, Average ([3]; BAP 200 μg/kg): 11.5
- Decrease of oxidative stress from the diabetic control ([3]; HFFD rats, 90 days): 2 fold
- Expression level of IL-1β (Normal = 1) ([4]; BAP 200 μg/kg): 1.62 ± 0.11
- Effect on pancreatic RAGE expression ([5]; BAP 200 μg/kg, 90 days with HFFD, vs diabetic rats): no effect
- Percentage Inhibition ([6]; BAP 1 μg/mL): 0%
- Percentage Inhibition ([6]; BAP 2 μg/mL): 11.92%
- Percentage Inhibition ([6]; BAP 4 μg/mL): 9.67%
- Inhibition of AGE formation (in words) ([6]; in vitro, BSA + ribose): poor inhibitor of AGE formation
- Expression level of TNF-α (Normal = 1) ([7]; BAP 200 μg/kg): 2.01 ± 0.31

- Anti-DPP4 activity ([8]; Conc 12.5 (unit uncertain)): 43.58
- Anti-DPP4 activity ([8]; Conc 25 (unit uncertain)): 56.07
- Anti-DPP4 activity ([8]; Conc 50 (unit uncertain)): 58.55
Structure (SMILES): O=C(/C=C/c1ccc(O)cc1)CC(=O)/C=C/c1ccc(O)cc1 [BDMC, Bisdemethoxycurcumin]

- Anti-DPP4 activity ([8]; Conc 12.5 (unit uncertain)): 14.11
- Anti-DPP4 activity ([8]; Conc 25 (unit uncertain)): 48.88
- Anti-DPP4 activity ([8]; Conc 50 (unit uncertain)): 70.29
- Effectiveness against DPP4 (comparison in words) ([8]; Table 11): as effective as AC3
Structure (SMILES): COc1cc(/C=C/C(=O)CC(=O)/C=C/c2ccc(O)c(OC)c2)ccc1O [Curcumin, curcumin]
- Anti-Glycation activity ([9]; 24 hrs (320/405), Conc 0.3125 mg/mL): 29.67
- Anti-Glycation activity ([9]; 24 hrs (320/405), Conc 0.625 mg/mL): 35.90
- Anti-Glycation activity ([9]; 72 hrs (320/405), Conc 0.625 mg/mL): 44.42

Structure (SMILES): COc1cc(/C=C/C(O)=C/C(=O)/C=C/c2ccc(O)cc2)ccc1O [DMC, demethoxycurcumin]
- Anti-DPP4 activity ([8]; Conc 12.5 (unit uncertain)): 23.56
- Anti-DPP4 activity ([8]; Conc 25 (unit uncertain)): 39.86
- Anti-DPP4 activity ([8]; Conc 50 (unit uncertain)): 62.60

Structure (SMILES): CN(C)C(=N)N=C(N)N [Metformin]
- Expression level of IL-6 (Normal = 1) ([1]; Metformin 100 mg/kg): 1.04 ± 0.12
- Relative Fluorescence Intensity, Average ([3]; Metformin 100 mg/kg): 28.94
- Expression level of IL-1β (Normal = 1) ([4]; Metformin 100 mg/kg): 0.89 ± 0.05
- Reduction of RAGE expression ([5]; metformin 100 mg/kg, pancreas): 6.9%
- Expression level of TNF-α (Normal = 1) ([7]; Metformin 100 mg/kg): 0.91 ± 0.22
